Data set [1] can be described thus: Animal weighing in radiation-induced brain injury model. Type of data set: in vivo, C57BL/6 mice. Particulars: full 8-week YC-6 administration, 60mg/kg/d; weighed once a week. The method, then: (§1) Table 1. Animal grouping and treatment methods
Weighing was performed once a week before and after the gamma ray radiation model construction for 8 weeks.

The subject of another data set is GFAP positive astrocytes. The settings on record: 60mg/kg/d YC-6 for 8 weeks; thalamus of the lesion, 8 weeks after gamma knife radiation; Mean±SEM, n=5; normal 57.80 ± 2.69, model 558.20 ± 10.07; P<0.0001 vs model.
Excerpt: as §1
(§2) The model constructing method for focal radiation-induced brain injury caused by gamma ray radiation was modified based on reported literature. After anesthesia of mouse by intraperitoneal injection of 0.1% pentobarbital sodium solution, the body was fixed on a customized platform, and the mouse skull was scanned by X-ray computed tomography scanner for imaging processing (radiation energy of 80kV, imaging range of 250mm, layer thickness and interlayer spacing of 0.625mm, pixel size of 0.49*0.49mm). The animal irradiation position and gamma knife irradiation depth were determined based on the scanning imaging results. The mouse and customized platform were placed in a stereotactic gamma ray irradiation system for irradiation, with the irradiation site in the left thalamus of the mouse. The coordinates of the irradiation center positioning point were: 2mm behind the anterior fontanelle (AP), 2mm left of the midline (L), and 2mm below the skull dura mater (dorsal ventral DV).

The test system of data set [2] is CC1 positive oligodendrocytes. The settings on record: 60mg/kg/d YC-6 for 8 weeks; thalamus of the lesion, 8 weeks after gamma knife radiation; Mean±SEM, n=5; normal 1608.00±47.92, model 200.60±21.47; P<0.0001 vs model.
Excerpt: as §1, §2

The subject of data set [3] is gamma knife irradiation induced focal radiation-induced brain injury. Particulars: MRI 8 weeks after 50 Gy gamma ray radiation, Mean±SEM, n=5, RBI+Saline model 15.28 ± 0.98, P<0.05 vs model.
Excerpt: as §1, §2

The test system of another data set is MAG. Particulars: 60mg/kg/d YC-6 for 8 weeks; thalamus of the lesion, 8 weeks after gamma knife radiation; Mean±SEM, n=5; normal 1.04±0.047, model 0.31±0.018; P<0.0001 vs model.
Excerpt: as §1, §2

Where two headings read alike, the source gives them in different places.

As to `C[C@@]12CCCC1C1C[C@@H](O)[C@@]3(O)C[C@@H](O)CC[C@]3(C)C1CC2` (stereo partly drawn) [YC-6, 5α-androst-3β,5,6β-triol], the body weight result in data set [1] is given as “without affecting body weight”. In the data set on GFAP positive astrocytes, this compound gave a Number of astrocytes of 357.00 ± 10.61 Astrocytes/mm^2. Moreover, the “Number of mature oligodendrocytes” value in data set [2] amounted to 506.40±30.48 Oligodendrocytes/mm^2. In addition, the Volume of lesion in data set [3] (60mg/kg/d YC-6 for 2 weeks, then stopped for 6 weeks) is 12.28 ± 0.63^# mm^3; in data set [3] (60mg/kg/d YC-6 for 8 weeks) it was 10.27 ± 1.50^# mm^3. Besides, the “MAG fluorescence signal intensity” value in the data set with MAG was determined as 0.44±0.018.

The values above are taken from patent publication EP4702979A1, “USE OF COMPOUND IN PREVENTION OR TREATMENT OF RADIATION-INDUCED BRAIN INJURY” (Guangzhou Cellprotek Pharmaceutical Co., Ltd, priority 2023, dated 2024).
